# Laboratory results reported in patent US20230137306A1 (priority 2020, published 2023).
# pIC50: −log10 of the molar value. Where a name gives a salt, the structure may show the parent alone. Read-outs that look alike come from different tables or passages of the source.
# Columns and labels:
# [1] = system: SARS-CoV-2; conditions: human, in vivo; cited from earlier work
# [2] = system: membrane fusion induced by the S protein of SARS-CoV-2; assay type: cell-based, human
# [3] = system: membrane fusion induced by the S protein of SARS-CoV; assay type: cell-based, human; conditions: 293FT target cells, nafamostat 0.1 μM to 10 μM, gabexsate 1 μM to 10 μM, FIG. 6
# [4] = system: RNA viruses such as norovirus, bunyavirus, arenavirus, flavivirus and Filovirus; conditions: cited from earlier work
# [5] = system: COVID-19; conditions: randomized controlled trials; cited from earlier work
# [6] = system: SARS-CoV; conditions: cited from earlier work
# [7] = system: membrane fusion induced by the S protein of SARS-CoV-2 (Calu-3 cells); assay type: cell-based, human
# [8] = system: membrane fusion induced by the S protein of SARS-CoV-2 (H3255 cells); assay type: cell-based, human
# [9] = system: SARS-CoV-2; conditions: read-out: 50% infection inhibitory concentration (IC50); Vero E6 cells, TMPRSS2 not expressed; Wang et al.; cited from earlier work
# [10] = healthy adult males, cited from earlier work
# [11] = system: membrane fusion caused by the S protein of MERS-CoV; conditions: cited from earlier work
# [12] = Pharmacokinetics, intravenous drip in healthy adult males; conditions: 20 mg intravenous drip over 90 minutes; corresponds to 61.5 ng/mL
compound,measurement,setting,value
CCN(CCO)CCCC(C)Nc1ccnc2cc(Cl)ccc12 (stereo not drawn) [Hydroxychloroquine],removal of SARS-CoV-2 from the nasopharynx,[1],removed at high frequency
"CN(C)C(=O)COC(=O)Cc1ccc(OC(=O)c2ccc(NC(=N)N)cc2)cc1 [camostat mesylate, dimethylcarbamoylmethyl 4-(4-guanidinobenzoyloxy)phenylacetate monomethanesulfonate]","inhibitory effect on membrane fusion (relative cell fusion, RL activity)",[2],membrane fusion was inhibited
same,inhibitory effect relative to that of nafamostat mesylate,[2],about 1/10
same,"inhibitory effect on membrane fusion (relative cell fusion, RL activity)",[3],second highest inhibitory effect
NC(=O)c1nc(F)c[nH]c1=O [favipiravir],antiviral activity against RNA viruses,[4],exhibits antiviral activity
Cc1cccc(C)c1OCC(=O)N[C@@H](Cc1ccccc1)[C@@H](O)C[C@H](Cc1ccccc1)NC(=O)[C@H](C(C)C)N1CCCNC1=O [lopinavir],improvement of the symptoms of COVID-19,[5],could not improve the symptoms
same,inhibitory activity against SARS-CoV,[6],exhibited inhibitory activity
"N=C(N)c1ccc2cc(OC(=O)c3ccc(N=C(N)N)cc3)ccc2c1 [nafamostat mesylate, 6-amidinonaphthalen-2-yl 4-guanidinobenzoate bis(methanesulfonate)]",concentration lower than that used for the 293FT cells,[7],about 10 fold
same,"inhibitory activity against membrane fusion, stronger than that of camostat mesylate",[7],about 10 fold
same,suppression of membrane fusion,[7],almost completely suppressed
same,suppression of membrane fusion,[8],almost completely suppressed
same,pIC50,[9],4.65
same,maximum blood concentration of unchanged agent,[10]; 10 mg intravenous drip over 90 minutes,16.4 ng/mL
same,maximum blood concentration of unchanged agent,[10]; 20 mg intravenous drip over 90 minutes,61.5 ng/mL
same,inhibition of membrane fusion caused by the S protein of MERS-CoV,[11],effectively inhibits
same,maximum blood concentration converted to,[12],114 nM
CC(C)c1nc(CN(C)C(=O)N[C@H](C(=O)N[C@@H](Cc2ccccc2)C[C@H](O)[C@H](Cc2ccccc2)NC(=O)OCc2cncs2)C(C)C)cs1 [ritonavir],improvement of the symptoms of COVID-19,[5],could not improve the symptoms
same,inhibitory activity against SARS-CoV,[6],exhibited inhibitory activity
